In series [1] the test system is human keratinocytes (HaCaT). It counts as cell-based. To be noted: 24 h. As for the experimental part:
To evaluate the cytotoxicity of the peptides (IC50), the classic MTT assay on 96-well plates was performed for human keratinocytes (HaCaT) which were acquired from the ATCC. The assay utilizes colorimetric determination of the cell metabolic activity, and the color intensity reflects the number of live cells that can be measured spectrophotometrically. […] DMSO was added to the control cells at a final concentration of 1.0% (v/v), which was related to the maximum concentration of the solvent compounds used in the experiment. After 24 h of incubation at 37 °C (humidified 5% CO2 incubator) with the peptides, a medium containing 1 mg/mL of MTT was added to the wells up to a final concentration of 0.5 mg/mL. Subsequently, the plates were incubated at 37 °C for 4 h. Then, the medium was aspirated, and the formazan product was solubilized with DMSO. The background absorbance at 630 nm was subtracted from that at 570 nm for each well (Epoch, BioTek Instruments, USA). Six replicates were conducted for each concentration. All experiments were repeated at least twice and the resulting IC50 values were calculated with GraFit 7 software (v. 7.0, Erithacus, Berkley, CA, USA).

Series [2] can be described thus: Hemolysis assay. The class given is cell-based. To be noted: human, human red blood cells (RBCs), 64 μg/mL (lowest concentration causing hemolysis > 10%); read-out: degree of hemolysis. As for the experimental part: The hemolysis assay was conducted using a procedure described previously. […] The control wells for 0% hemolysis and 100% hemolysis consisted of RBCs suspended in PBS and 1% of Triton X-100, respectively. […] After centrifugation, the supernatant was carefully […] to new microtiter plates and the release of hemoglobin was monitored by absorbance readings at 540 nm (MultiskanTM GO Microplate Spectrophotometer, Thermo Scientific). All experiments were conducted in triplicate. Blood collection was approved by Medical University of Gdańsk ethics committee (Consent Number: NKBBN/264/2019).

For series [3], the system named is biofilm of reference and clinical strains of staphylococci (S. aureus). To be noted: 24 h. From the text:
(§1) Clinical S. aureus strains were collected from patients with atopic dermatitis during their visits to the Outpatient Clinic and hospitalization in the Department of Dermatology, Venereology and Allergology at Medical University of Gdańsk (following the approval from the ethics committee, Approval Number NKBBN/242–477/2014). Reference strains of S. aureus ATCC 25923, S. aureus ATCC 33591, S. aureus ATCC 9144, and S. aureus ATCC 12598 were obtained from the American Type Culture Collection. All the strains were stored at − 80 °C in Roti®-Store cryo vials (Carl Roth GmbH, Karlsruhe, Germany) and before the tests were transferred into fresh Mueller–Hinton Medium (BioMaxima, Lublin, Poland) and incubated for 24 h at 37 °C. Subsequently, each bacterial inoculum was seeded on Mueller–Hinton agar plates (BioMaxima) and incubated again for 24 h. The cultures prepared in this way were used in further antimicrobial assays. Minimum inhibitory concentrations (MICs) were determined according to the Clinical and Laboratory Standards Institute recommendations. […] The experiments were conducted on 96-well microtiter plates, with a final volume of 100 μL. Additionally, in the case of daptomycin, the medium was supplemented with Ca^2+ (50 mg/L). Cell densities were adjusted spectrophotometrically (Multiskan™ GO Microplate Spectrophotometer, Thermo Scientific) at 600 nm. The MICs were taken as the lowest drug concentration at which a visible growth of the microorganisms was inhibited. Minimum biofilm eliminating concentrations (MBECs) were determined on 96-well flat-bottomed microtiter polystyrene plates with resazurin (7-hydroxy-3H-phenoxazin-3-one 10-oxide sodium salt) as a cell viability reagent. To do this, the plates were filled with 100 μL of the initial inoculums of bacteria (0.5 × 10^7 CFU/mL) in the Mueller–Hinton broth and incubated for 24 h at 37 °C. […] After 24 h of incubation, 20 μL of resazurin (4 mg/mL) was added to each well and the MBEC values were read. Minimum biofilm inhibitory concentrations (MBICs) were also determined on 96-well flat-bottomed microtiter polystyrene plates as described previously. To do this, 50 μL of the compounds in the concentration range, diluted MHB, were prepared. Subsequently, the 50 μL of the staphylococcal inoculums were added to reach the same density of bacteria as that in the MBEC assay. After 24 h of incubation at 37 °C, the wells were rinsed three times with PBS and the fresh medium (100 μL) with resazurin (0.6 mg/mL) was added. Then, after 1 h of incubation, MBICs were read. […] All experiments were conducted in triplicate.

Series [4] relates to S. aureus clinical strain 051N (MRSA) biofilm. To be noted: clinical strain 051N biofilm, 24 h.
Excerpt: as §1

The test system of series [5] is S. aureus ATCC 33591 (MRSA) biofilm. Particulars: ATCC 33591, 24 h.
Excerpt: as §1

Series [6] concerns S. aureus ATCC 33591 (MRSA). To be noted: ATCC 33591, 24 h.
Excerpt: as §1

The test system of series [7] is S. aureus clinical strain 004N (MRSA). Particulars: 24 h.
Excerpt: as §1

Series [8] has as its system S. aureus clinical strain 004N (MRSA) biofilm. To be noted: clinical strain 004N biofilm, 24 h.
Excerpt: as §1

For series [9], the system named is S. aureus clinical strain 043SC (MRSA). To be noted: 24 h.
Excerpt: as §1

Series [10] relates to S. aureus clinical strain 015N (MRSA) biofilm. To be noted: clinical strain 015N biofilm, 24 h.
Excerpt: as §1

Series [11] relates to S. aureus clinical strain 015N (MRSA). To be noted: 24 h.
Excerpt: as §1

In series [12] the test system is reference and clinical strains of staphylococci (S. aureus). To be noted: 24 h.
Excerpt: as §1

For series [13], the system named is S. aureus clinical strain 043SC (MRSA) biofilm. To be noted: clinical strain 043SC biofilm, 24 h.
Excerpt: as §1

Series [14] relates to S. aureus clinical strain 051N (MRSA). Particulars: 24 h.
Excerpt: as §1

For series [15], the system named is cells. Further details: method as in PMID 11294848. Particulars: low concentrations; cited from earlier work.

No end group written: not given here.

As usually defined, the IC50 is the concentration needed to halve the response being measured. Low readings indicate greater potency, high ones weaker potency. A word on the MIC: it is the lowest concentration found to suppress growth. Low readings indicate greater potency, high ones weaker potency. Substance KRRWPWWPWRLI-NH2 [Retro-omiganan Cl^−] registered a half-inhibitory concentration (IC50) in [1] of 26.66 µg/mL. Further, the hemolysis at 60 min, 64 μg/mL in [2] is 16%. For the same substance, in series [3], the “mean MBEC (initial values)” value is on record as 36.57 µg/mL. The MBEC in series [4] worked out at 64 µg/mL; in [5], 32 µg/mL; in [8] it was 64 µg/mL; in series [10] it was 32 µg/mL; in [13] it was 32 µg/mL. For the same substance, the MBIC in [4] turned out to be 16 µg/mL; in series [5], 32 µg/mL; in series [8], 16 µg/mL; in [10], 16 µg/mL; in series [13] it was 16 µg/mL. In addition, the MIC was determined as 16 µg/mL in series [6]; 16 µg/mL in series [7]; 8 µg/mL in series [9]; 8 µg/mL in series [11]; 16 µg/mL in series [14]. Moreover, in series [12], the “mean MIC (initial values)” value is on record as 8.93 µg/mL.
In the case of “indolicidin: antimicrobial peptide derived from bovine neutrophil granules (ILPWKWPWWPWRR; ends and bridges not checked; UniProt P33046 131-143, looked up)”, in [15], the “cells with membrane depolarization” value is on record as “up to 75%”.

The record behind these values is article PMC12055641, “The Study of Antistaphylococcal Potential of Omiganan and Retro-Omiganan Under Flow Conditions” (Probiotics and Antimicrobial Proteins, 2024).
